Experimental data reported in patent US11014917B2, “5-fluoro-c-(aryl or heterocyclyl)-glycoside derivatives useful as dual SGLT1 / SGLT2 modulators” (Janssen Pharmaceutica NV, priority 2017, dated 2021).

What was measured:
human SGLT1 = target: T1, human SGLT1 (Homo sapiens, UniProt P13866); test: SGLT1 assay: Na-dependent 14C-AMG uptake in CHO-K1 cells stably expressing human SGLT1; type: cell-based; details: for IC50: average if tested more than once; for SGLT1 %-inhibition: @ 0.3 μM
T1 construct: expressed in transfected cells
T1 sequence (P13866 1-664): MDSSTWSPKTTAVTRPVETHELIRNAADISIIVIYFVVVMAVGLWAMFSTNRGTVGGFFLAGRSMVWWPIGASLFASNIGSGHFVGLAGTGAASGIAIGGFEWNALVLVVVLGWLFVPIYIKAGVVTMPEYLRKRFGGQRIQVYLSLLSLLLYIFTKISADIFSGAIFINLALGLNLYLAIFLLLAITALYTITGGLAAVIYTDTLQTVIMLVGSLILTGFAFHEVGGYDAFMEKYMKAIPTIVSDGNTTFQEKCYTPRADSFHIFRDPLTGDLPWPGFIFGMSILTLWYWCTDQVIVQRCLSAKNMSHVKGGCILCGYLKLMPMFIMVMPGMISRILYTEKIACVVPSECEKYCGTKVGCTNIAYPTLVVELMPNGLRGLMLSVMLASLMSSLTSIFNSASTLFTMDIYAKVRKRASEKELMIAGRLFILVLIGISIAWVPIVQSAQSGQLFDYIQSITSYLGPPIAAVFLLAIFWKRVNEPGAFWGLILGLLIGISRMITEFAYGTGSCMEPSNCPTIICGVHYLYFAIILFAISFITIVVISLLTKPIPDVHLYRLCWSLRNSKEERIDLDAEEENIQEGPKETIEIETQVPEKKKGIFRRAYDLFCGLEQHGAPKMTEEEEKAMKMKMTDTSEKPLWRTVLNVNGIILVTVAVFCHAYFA
How it was run: (§1)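 Stable CHO-K1 lines were pretreated 24 h with 10 mM Na-butyrate, then compound (0.001–10 μM) for 10 min in Na+ buffer (137 mM NaCl, pH 7.4). Uptake of 14C-AMG (500 μM final, 0.07 μCi/well) over 2 h at 37° C measured by scintillation; %-inhibition or IC50.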

human SGLT2 = target: T2, human SGLT2 (Homo sapiens, UniProt P31639); test: SGLT2 assay: Na-dependent 14C-AMG uptake in CHO-K1 cells stably expressing human SGLT2; type: cell-based; details: for IC50: average if tested more than once; for SGLT2 %-inhibition: @ 0.3 μM
T2 construct: expressed in transfected cells
T2 sequence (P31639 1-672): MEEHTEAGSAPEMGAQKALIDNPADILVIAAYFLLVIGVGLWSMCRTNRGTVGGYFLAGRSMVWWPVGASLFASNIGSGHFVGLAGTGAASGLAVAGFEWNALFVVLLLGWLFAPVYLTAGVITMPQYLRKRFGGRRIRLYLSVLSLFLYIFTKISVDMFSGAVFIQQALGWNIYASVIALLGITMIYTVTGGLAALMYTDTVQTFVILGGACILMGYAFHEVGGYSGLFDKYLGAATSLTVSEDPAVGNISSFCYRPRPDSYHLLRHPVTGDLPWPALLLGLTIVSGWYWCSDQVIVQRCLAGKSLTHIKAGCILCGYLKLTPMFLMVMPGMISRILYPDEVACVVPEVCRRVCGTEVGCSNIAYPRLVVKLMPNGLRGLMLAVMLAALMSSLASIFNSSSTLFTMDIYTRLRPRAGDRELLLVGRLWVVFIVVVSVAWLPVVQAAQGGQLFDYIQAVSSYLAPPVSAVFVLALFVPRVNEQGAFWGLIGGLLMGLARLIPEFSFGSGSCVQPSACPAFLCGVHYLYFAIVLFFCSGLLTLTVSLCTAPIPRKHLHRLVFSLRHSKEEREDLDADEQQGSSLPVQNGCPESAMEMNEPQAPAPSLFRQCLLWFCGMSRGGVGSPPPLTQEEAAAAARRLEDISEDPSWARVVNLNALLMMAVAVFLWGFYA
How it was run: as §1

SMILES | IC50 (human SGLT1) [nM] | IC50 (human SGLT2) [nM] | SGLT1 %-inhibition (human SGLT1) [% @ 0.3 μM] | SGLT2 %-inhibition (human SGLT2) [% @ 0.3 μM]
OC[C@H]1O[C@@H](c2cc(Cc3ccc4c(c3)CCCO4)c(Cl)c3c2OCC3)[C@H](O)[C@@H](O)[C@@H]1F [Compound 125, (2S,3R,4R,5S,6R)-2-(4-chloro-5-(chroman-6-ylmethyl)-2,3-dihydrobenzofuran-7-yl)-5-fluoro-6-(hydroxymethyl)-tetrahydro-2H-pyran-3,4-diol] | 227 | 17 | – | –
COc1cc(O)c(C2OC(C(C)O)C(F)C(O)C2O)cc1Cc1cc2ccccc2s1 (single isomer, unassigned) [Compound 53] | 104 | 26 | – | –
COC[C@H]1O[C@@H](c2cc(Cc3cc4ccccc4s3)c(C)cc2O)[C@H](O)[C@@H](O)[C@@H]1F [Compound 19] | – | – | 47.6 | 68.1
N#CN1CCc2sc(Cc3cc([C@@H]4O[C@H](CO)[C@@H](F)[C@H](O)[C@H]4O)c(O)cc3Cl)cc2C1 [Compound 114] | 109 | 5 | – | –
OC[C@H]1O[C@@H](c2cc3c(c(Cc4ccc5c(c4)NCCC5)c2)OCC3)[C@H](O)[C@@H](O)[C@@H]1F [Compound 89] | 42 | 100 | – | –
Cc1c(Cc2cc3ccccc3s2)cc([C@@H]2O[C@H](CO)[C@@H](F)[C@H](O)[C@H]2O)c(O)c1C [Compound 13] | 15 | 7 | – | –
[2H]C([2H])(c1ccc2c(c1)CCCO2)c1cc([C@@H]2O[C@H](CO)[C@@H](F)[C@H](O)[C@H]2O)ccc1OC [Compound 171] | – | – | 27.1 | 69.9
O=C(N1CCCC1)N1CCc2sc(Cc3cc([C@@H]4O[C@H](CO)[C@@H](F)[C@H](O)[C@H]4O)cc4c3OCC4)cc2C1 [Compound 70] | 100 | 162 | – | –
[2H]C1([2H])Oc2ccc(Cc3cc([C@@H]4O[C@H](CO)[C@@H](F)[C@H](O)[C@H]4O)cc4c3CCO4)cc2OC1([2H])[2H] [Compound 181] | – | – | 67.0 | 85.0
OC[C@H]1O[C@@H](c2cc(Cc3ccc4c(c3)OCCO4)c3c(c2)OCC3)[C@H](O)[C@@H](O)[C@@H]1F [Compound 153] | 50 | 58 | – | –
OC[C@H]1O[C@@H](c2cc3c(c(Cc4ccc5c(c4)CCCO5)c2)OCC3)[C@H](O)[C@@H](O)[C@@H]1F [Compound 56] | 523 | 12 | – | –
COc1c(Cc2ccc3c(c2)CC3)cc([C@@H]2O[C@H](CO)[C@@H](F)[C@H](O)[C@H]2O)c2c1CCO2 [Compound 152] | 6 | 6 | – | –
COC(=O)N1CCc2sc(Cc3cc([C@@H]4O[C@H](CO)[C@@H](F)[C@H](O)[C@H]4O)c(O)cc3Cl)cc2C1 [Compound 73] | 240 | 48 | – | –
COc1cc(C)c(Cc2cc3c(s2)CCN(C#N)C3)cc1[C@@H]1O[C@H](CO)[C@@H](F)[C@H](O)[C@H]1O [Compound 110, 2-(5-((2S,3R,4R,5S,6R)-5-fluoro-3,4-dihydroxy-6-(hydroxymethyl)-tetrahydro-2H-pyran-2-yl)-4-methoxy-2-methylbenzyl)-6,7-dihydrothieno[3,2-c]pyridine-5(4H)-carbonitrile] | 1420 | 5 | – | –
[2H]C([2H])(c1ccc2c(c1)OCCO2)c1cc([C@@H]2O[C@H](CO)[C@@H](F)[C@H](O)[C@H]2O)ccc1Cl [Compound 166] | 245 | 11 | – | –
[2H]C([2H])(c1ccc2c(c1)OCCO2)c1cc([C@@H]2O[C@H](CO)[C@@H](F)[C@H](O)[C@H]2O)ccc1CC [Compound 156] | 86 | 10 | – | –
CC1COc2c(Cc3ccc4c(c3)OCCO4)cc(C3OC(CO)C(F)C(O)C3O)cc21 (mixture of isomers) [Compound 95] | – | – | 45.3 | 62.7
COc1c([C@@H]2O[C@H](CO)[C@@H](F)[C@H](O)[C@H]2O)cc(Cc2ccc3c(c2)NCCC3)c2c1CCO2 [Compound 105, (2S,3R,4R,5S,6R)-5-fluoro-6-(hydroxymethyl)-2-(4-methoxy-7-((1,2,3,4-tetrahydroquinolin-7-yl)methyl)-2,3-dihydrobenzofuran-5-yl)-tetrahydro-2H-pyran-3,4-diol] | 128 | 4 | – | –
[2H]C([2H])([2H])Oc1c([C@@H]2O[C@H](CO)[C@@H](F)[C@H](O)[C@H]2O)cc(C([2H])([2H])c2ccc3c(c2)OCCO3)c2c1CCO2 [Compound 161, (2S,3R,4R,5S,6R)-2-(7-((2,3-dihydrobenzo[b][1,4]dioxin-6-yl-)methyl-d2)-4-(methoxy-d3)-2,3-dihydrobenzofuran-5-yl)-5-fluoro-6-(hydroxymethyl)tetrahydro-2H-pyran-3,4-diol] | 52 | 7 | – | –
[2H]C1([2H])Oc2ccc(Cc3cc([C@@H]4O[C@H](CO)[C@@H](F)[C@H](O)[C@H]4O)c(OC)c4c3OCC4)cc2OC1([2H])[2H] [Compound 172, (2S,3R,4R,5S,6R)-5-fluoro-6-(hydroxymethyl)-2-[4-methoxy-7-[(2,2,3,3-tetradeuterio-1,4-benzodioxin-6-yl)methyl]-2,3-dihydrobenzofuran-5-yl]tetrahydropyran-3,4-diol] | 45 | 7 | – | –
Cc1ccc([C@@H]2O[C@H](CO)[C@@H](F)[C@H](O)[C@H]2O)cc1Cc1cc2c(s1)CCN(C(=O)N1CCCC1)C2 [Compound 78] | – | – | 28.4 | 86.9
CCc1ccc(Cc2cc([C@@H]3O[C@H](CO)[C@@H](F)[C@H](O)[C@H]3O)cc3c2OCC3)cc1 [Compound 134] | 254 | 12 | – | –
COc1cc(O)c([C@@H]2O[C@H](CO)[C@@H](F)[C@H](O)[C@H]2O)cc1Cc1cc2c(s1)CCN(C#N)C2 [Compound 100] | 95 | 8 | – | –
COc1cc(Cl)c(Cc2cc3c(s2)CCN(C#N)C3)cc1[C@@H]1O[C@H](CO)[C@@H](F)[C@H](O)[C@H]1O [Compound 99] | – | – | 28.9 | 83.5
[2H]C1([2H])Oc2ccc(Cc3cc([C@@H]4O[C@H](CO)[C@@H](F)[C@H](O)[C@H]4O)ccc3OC)cc2OC1([2H])[2H] [Compound 173] | 190 | 13 | – | –
